Laboratory results reported in patent US12195471B2, “Salt of aldose reductase inhibitor, and preparation method and application thereof” (CSPC ZHONGQI PHARMACEUTICAL TECHNOLOGY (SHIJIAZHUANG) CO., …, priority 2019, dated 2025).

Assays:
Format in all cases: physicochemical
Solubility test in water = details: for solubility: thermodynamic from solid, in purified water, saturated state
Protocol: The salts obtained in Example 1, Comparative examples 1, 2 and 6, and the compound of formula A were tested for solubility in water, and the test method was as follows:
Test method: the samples to be tested were taken in a certain amount, gradually added to the purified water respectively, and continuously shaked until the samples reached the saturated state, the weighed amount of the samples to be tested and the used amount of the solvent were recorded, the concentrations at which the samples were dissolved were calculated, and the test results were shown in the following table: […]

[1] = Hygroscopicity / stable existence of the obtained salt solid; details: concluding statement
Protocol: With reference to the preparation method of Example 1, the preparation of alkaline amino acid salts: lysine salt, arginine salt, and proline salt of the compound of formula A was carried out using methanol as the reaction solvent.

[2] = Stability test, accelerated test at 40° C.±2° C./75% RH±5% RH; details: for Content (%) / Maximum single impurity (%) / Moisture (%) / Total impurity (%): 40° C.±2° C./75% RH±5% RH
Protocol: The sodium salt of the compound of formula A obtained in Example 1 (packaging conditions: low-density polyethylene bag+polyester/aluminum/polyethylene composite bag for pharmaceutical packaging) was subjected to an accelerated test at 40° C.±2° C./75% RH±5% RH, and the results were as follows: […]

Structure (SMILES): O=C(O)Cc1nn(Cc2nc3cc(C(F)(F)F)ccc3s2)c(=O)c2nccnc12 [Compound of formula A, reference compound]
- solubility (Solubility test in water): 35 µg/mL
- solubility in water (in words) (Solubility test in water): insoluble in water

Structure (SMILES): O=C([O-])Cc1nn(Cc2nc3cc(C(F)(F)F)ccc3s2)c(=O)c2nccnc12.[Na+] [Example 1]
- hygroscopicity (in words) [1]: low hygroscopicity
- solubility (Solubility test in water): 10000 µg/mL
- solubility in water (in words) (Solubility test in water): good solubility
- Content (%) ([2]; 0 Month): 100.8%
- Maximum single impurity (%) ([2]; 0 Month): 0.03%
- Moisture (%) ([2]; 0 Month): 0.6%
- Total impurity (%) ([2]; 0 Month): 0.40%
- Content (%) ([2]; 1 Month): 99.6%
- Maximum single impurity (%) ([2]; 1 Month): 0.03%
- Moisture (%) ([2]; 1 Month): 0.7%
- Total impurity (%) ([2]; 1 Month): 0.45%
- Content (%) ([2]; 2 Month): 99.9%
- Maximum single impurity (%) ([2]; 2 Month): 0.03%
- Moisture (%) ([2]; 2 Month): 0.7%
- Total impurity (%) ([2]; 2 Month): 0.37%
- Content (%) ([2]; 3 Month): 99.6%
- Maximum single impurity (%) ([2]; 3 Month): 0.03%
- Moisture (%) ([2]; 3 Month): 0.8%
- Total impurity (%) ([2]; 3 Month): 0.42%
- Content (%) ([2]; 6 Month): 100.9%
- Maximum single impurity (%) ([2]; 6 Month): 0.03%
- Moisture (%) ([2]; 6 Month): 0.8%
- Total impurity (%) ([2]; 6 Month): 0.54%
- quality stability (in words) ([2]; concluding statement): stable quality
